In patent US9170257B2 (priority 2012, dated 2015):

How the values were obtained:
[1] = in vivo; design: species or system Beagle dogs; details: dog, in vivo; for concentration at 15 min post-infusion / concentration at 15 min / Kp at 2 h / Kp at 8 h: both sexes; for Kp at 2 h / Kp at 8 h: Kp [tissue]/[plasma]
Description: The test article will be administered to 8 Beagle dogs by intravenous infusion over two hours (Part A) or eight hours (Part B) as shown in Table 6.
(§1) Multiple samples of tissue weighing approximately 1 gram were removed and snap frozen in the presence or absence of phosphoric acid (H3PO4). For all tissue samples, the levels of curcumin and THC were determined using a method developed by the Bioanalytical Department at Nucro-Technics. […] Values that were below the limit of quantification were assigned a value of 0. […] Tissue distribution data was analyzed using, unless stated, the data from 4 dogs and are presented as the mean±standard error (S.E.).

[2] = in vivo; format: in vivo, Beagle dogs; details: dog, in vivo
Description: (§2) The results and analysis for the study are presented for intravenous infusion dosing of a total dose of 10 mg/kg infused over a period of either 2 or 8 hours. Plasma levels of curcumin and its metabolite, THC were measured at timed intervals post-dosing.
(§3) Bioanalysis was performed on two sets of samples, one set that was treated with phosphoric acid and one set that was not treated with phosphoric acid. […] Values that were below the limit of quantification were assigned a value of 0.
as §1, with “Fifteen minutes following either the 2 hour or 8 hour infusion, blood, urine and bile samples were taken, prior to the dogs being necropsied and organs removed for the isolation of tissues. Multiple” for “Multiple”

[3] = in vivo; format: in vivo, Beagle dogs; details: dog, in vivo, iv, 10 mg/kg
Description: as §2
For the 2 hour infusion, blood samples were taken at predose and 0.25, 0.5, 1.5 and at 2 hours during infusion and at 15 minutes post-infusion. For the 8 hour infusion, blood samples were taken at predose and 0.25, 0.5, 1.5, […] and at 8 hours during infusion and at 15 minutes post-infusion.
as §3
Plasma concentration vs. time profiles were analyzed using (unless otherwise stated) the data from 4 dogs. Plasma profiles for the test articles are presented as the mean data±SE of 4 dogs. Average plasma concentrations were used to perform the PK analysis. Plasma concentration vs. time profiles were analyzed and the PK parameters estimated using WinNonlin Version 5.2.1 employing the intravenous infusion model with first order elimination. Unless stated otherwise, the plasma concentration-time profiles for the test articles are presented as the mean data±SE of 4 dogs.

[4] = system: MPTP-induced depletion of DA and DOPAC; details: 80 mg/kg i.p.; cited from earlier work
[5] = rat, rodent studies; cited from earlier work

With `COc1cc(/C=C/C(=O)CC(=O)/C=C/c2ccc(O)c(OC)c2)ccc1O` [Curcumin, 1,7-bis(4-hydroxy-3-methoxyphenyl)-1,6-heptadiene-3,5-dione, reference compound] the concentration at 15 min post-infusion ([1]; Beagle, Tissue analysis, Liver) was 28.4 ng/g, the concentration at 15 min post-infusion ([1]; Beagle, Tissue analysis, Spleen) was 22.9 ng/g and the concentration at 15 min ([1]; Beagle, Tissue level, Brain Stem) was 0.3 ng/g. For the same compound, the concentration at 15 min ([1]; beagle, Average tissue concentration, Bladder) was 0.66 ng/g, the concentration at 15 min ([1]; beagle, Average tissue concentration, Brainstem) was 0.45 ng/g and the concentration at 15 min ([1]; beagle, Average tissue concentration, Heart) was 0.47 ng/g. It also gave a concentration at 15 min ([1]; beagle, Average tissue concentration, Intestinal wall) of 1.14 ng/g, a concentration at 15 min ([1]; beagle, Average tissue concentration, Striatum) of 0.48 ng/g and a Kp at 2 h ([1]; beagle, Brain Stem) of 0.0081. It also gave a Kp at 8 h ([1]; beagle, Brain Stem) of 0.0389, a Kp at 2 h ([1]; beagle, Cortex, Brain) of 0.0134 and a Kp at 8 h ([1]; beagle, Cortex, Brain) of 0.0544. It also gave a Kp at 2 h ([1]; beagle, Heart) of 0.0087, a Kp at 8 h ([1]; beagle, Heart) of 0.0503 and a Kp at 2 h ([1]; beagle, Hippocampus) of 0.0016. The Kp at 8 h ([1]; beagle, Hippocampus) was 0.0007, the Kp at 2 h ([1]; beagle, Intestinal Wall) was 0.0206 and the Kp at 8 h ([1]; beagle, Intestinal Wall) was 0.0564. The Kp at 2 h ([1]; beagle, Kidney) was 0.0161, the Kp at 8 h ([1]; beagle, Kidney) was 0.186 and the Kp at 2 h ([1]; beagle, Liver) was 0.0329. The Kp at 8 h ([1]; beagle, Liver) was 1.9, the Kp at 2 h ([1]; beagle, Lungs) was 0.413 and the Kp at 8 h ([1]; beagle, Lungs) was 16.8. The Kp at 2 h ([1]; beagle, Muscle) was 0.0034, the Kp at 8 h ([1]; beagle, Muscle) was 0.053 and the Kp at 2 h ([1]; beagle, Pancreas) was 0.0166. For the same compound, the Kp at 8 h ([1]; beagle, Pancreas) was 0.191, the Kp at 2 h ([1]; beagle, Striatum) was 0.0087 and the Kp at 8 h ([1]; beagle, Striatum) was 0.0329. For the same compound, the Kp at 2 h ([1]; beagle, Urinary Bladder) was 0.0125, the Kp at 8 h ([1]; beagle, Urinary Bladder) was 0.152 and the concentration at 15 min ([1]; beagle, Tissue analysis, Brainstem) was 0.45 ng/g. It also gave a concentration at 15 min ([1]; beagle, Tissue analysis, Cortex) of 0.73 ng/g, a concentration at 15 min ([1]; beagle, Tissue level, Cortex, Brain) of 0.52 ng/g and a concentration at 15 min ([1]; beagle, Tissue level, Heart) of 0.49 ng/g. For the same compound, the “Average tissue concentration, Bladder” value ([1]; both, beagle, 15 min) was 0.87 ng/gm, the “Average tissue concentration, Brainstem” value ([1]; both, beagle, 15 min) was 0.57 ng/gm and the “Average tissue concentration, Cortex” value ([1]; both, beagle, 15 min) was 0.80 ng/gm. For the same compound, the “Average tissue concentration, Heart” value ([1]; both, beagle, 15 min) was 0.74 ng/gm, the “Average tissue concentration, Striatum” value ([1]; both, beagle, 15 min) was 0.49 ng/gm and the “Tissue analysis, Brainstem” value ([1]; both, beagle, 15 min) was 0.32. The “Tissue analysis, Cortex” value ([1]; both, beagle, 15 min) was 0.52, the “Tissue level, Brain Stem” value ([1]; both, beagle, 15 min) was 0.41 ng/g and the “Tissue level, Cortex, Brain” value ([1]; both, beagle, 15 min) was 0.72 ng/g. The “Tissue level, Heart” value ([1]; both, beagle, 15 min) was 0.67 ng/g, the “Kp [tissue]/[plasma], Liver” value ([1]; both, beagle, 8 h) was 1.9047 and the “Kp [tissue]/[plasma], Lungs” value ([1]; both, beagle, 8 h) was 16.8289. It also gave a concentration at 15 min ([2]; both sexes, Beagle, Plasma level) of 0 ng/mL, a Plasma level ([2]; both, beagle, 15 min) of 0 ± 0 ng/mL and a clearance ([3]; both sexes, Beagle) of 343 mL/min/kg. For the same compound, the Cmax ([3]; both sexes, Beagle, Cmax) was 15 ng/mL, the MRT ([3]; both sexes, beagle) was 36 min and the Vd ([3]; both sexes, beagle) was 12.7 L/kg. The clearance ([3]; both sexes, beagle) was 343 mL/min/kg, the half-life ([3]; both sexes, beagle) was 24 min and the AUC ([3]; both sexes, beagle, AUC) was 65 ng·h/mL. For the same compound, the AUC ([3]; both sexes, beagle, AUC (estimated PK parameter)) was 485 ng·h/mL, the Cmax ([3]; both sexes, beagle, Cmax) was 46 ng/mL and the Cmax ([3]; both sexes, beagle, Cmax (estimated PK parameter)) was 233 ng/mL. For the same compound, the AUC ([3]; both, Beagle) was 52 ng·h/mL, the Ke ([3]; both, Beagle) was 1.6 h⁻¹ and the “MPTP-induced depletion of DA and DOPAC” value [4] was “significantly reversed”. The Kp values [5] was 0.06-0.25.
